The text below walks through data of patent US20220378923A1, “BET DEGRADER” (KYOWA KIRIN CO., LTD., priority 2019, published 2022).

Molecules are shown by their SMILES.

For one experiment, the system named is SU-DHL-4 cells. Put plainly: Inhibitory effect on cell viability in SU-DHL-4 cell line (Test Example 1). It counts as cell-based, human. Conditions: Homo sapiens; SU-DHL-4 cells, 72 hours, Cell Counting Kit-8; concentration showing 90% inhibition of cell viability; read-out: SU-DHL-4 Cell Viability Inhibition Rate IC90. The method, boiled down: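 SU-DHL-4 cells were grown at 37° C. under 5% CO2 in RPMI1640 with 10 vol % heat-inactivated FBS plus penicillin/streptomycin, seeded and precultured for 18 to 25 hours, then exposed to test compound at 0.1 vol % DMSO for 72 hours. Viability was read with Cell Counting Kit-8 by absorbance at 450 nm.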
Turning to `CCC(=O)N1c2ccccc2[C@H](Nc2ccc(NC(=O)C3CN(C(=O)c4ccc(OCCN5CCN(C)C(=O)[C@H]5C)cc4)C3)cc2)C[C@@H]1C` [Compound 16a, 1-(4-(2-((R)-2,4-Dimethyl-3-oxopiperazin-1-yl)ethoxy)benzoyl)-N-(4-(((2S,4R)-2-methyl-1-propionyl-1,2,3,4-tetrahydroquinolin-4-yl)amino)phenyl)azetidine-3-carboxamide], the IC90 (in general, the point of the concentration-response curve where the effect stands at 90%) amounted to 11.1 nM.
In the case of `CCC(=O)N1c2ccccc2[C@H](Nc2ccc(-c3nnc(CNC(=O)c4ccc(OCCN5CCN(C)C(=O)[C@H]5C)cc4)o3)cc2)C[C@@H]1C` [Compound 16b, 4-(2-((R)-2,4-Dimethyl-3-oxopiperazin-1-yl)ethoxy)-N-((5-(4-(((2S,4R)-2-methyl-1-propionyl-1,2,3,4-tetrahydroquinolin-4-yl)amino)phenyl)-1,3,4-oxadiazol-2-yl)methyl)benzamide], the IC90 came to 2.05 nM.
On to `CCC(=O)N1c2ccccc2[C@H](Nc2ccc(-c3nnc(CNC(=O)N4CCN(Cc5cc(O)cc(-c6c(C)noc6C)c5)CC4)o3)cc2)C[C@@H]1C` [Compound 16c, 4-(3-(3,5-Dimethylisoxazol-4-yl)-5-hydroxybenzyl)-N-((5-(4-(((2S,4R)-2-methyl-1-propionyl-1,2,3,4-tetrahydroquinolin-4-yl)amino)phenyl)-1,3,4-oxadiazol-2-yl)methyl)piperazine-1-carboxamide], for which the 90% effect concentration (IC90) came to 0.28 nM.
As for `CCC(=O)N1c2ccccc2[C@H](Nc2ccc(-n3cc(CNC(=O)C4CCN(Cc5cc(O)cc(-c6c(C)noc6C)c5)CC4)nn3)cc2)C[C@@H]1C` [Compound 16d, 1-(3-(3,5-Dimethylisoxazol-4-yl)-5-hydroxybenzyl)-N-((1-(4-(((2S,4R)-2-methyl-1-propionyl-1,2,3,4-tetrahydroquinolin-4-yl)amino)phenyl)-1H-1,2,3-triazol-4-yl)methyl)piperidine-4-carboxamide], the IC90 was determined as 0.17 nM.
As to `CCC(=O)N1c2ccccc2[C@H](Nc2ccc(NC(=O)CCCC(=O)Nc3ccc(OCCN4CCN(C)C(=O)[C@H]4C)cc3)cc2)C[C@@H]1C` [Compound 16e, N^1-(4-(2-((R)-2,4-Dimethyl-3-oxopiperazin-1-yl)ethoxy)phenyl)-N5-(4-(((2S,4R)-2-methyl-1-propionyl-1,2,3,4-tetrahydroquinolin-4-yl)amino)phenyl)glutaramide], the IC90 was determined as 5.97 nM.
Regarding `CCC(=O)N1c2ccccc2[C@H](Nc2ccc(NC(=O)CCCC(=O)NC3CC4(C3)CN(Cc3cc(O)cc(-c5c(C)noc5C)c3)C4)cc2)C[C@@H]1C` [Compound 16g, N^1-(2-(3-(3,5-Dimethylisoxazol-4-yl)-5-hydroxybenzyl)-2-azaspiro[3.3]heptan-6-yl)-N5-(4-(((2S,4R)-2-methyl-1-propionyl-1,2,3,4-tetrahydroquinolin-4-yl)amino)phenyl)glutaramide], the IC90 turned out to be 14.9 nM.
On the same count and under the same terms, for `CCC(=O)N1c2ccccc2[C@H](Nc2ccc(NC(=O)CCCC(=O)NC3CCN(Cc4ccccc4-c4cn(C)c(=O)cc4OC)CC3)cc2)C[C@@H]1C` [Compound 16h, N^1-(1-(2-(4-Methoxy-1-methyl-6-oxo-1,6-dihydropyridin-3-yl)benzyl)piperidin-4-yl)-N5-(4-(((2S,4R)-2-methyl-1-propionyl-1,2,3,4-tetrahydroquinolin-4-yl)amino)phenyl)glutaramide] the value was 68.4 nM.
Still for that read-out and setting: for `CCC(=O)N1c2ccccc2[C@H](Nc2ccc(NC(=O)CCCC(=O)NC34CC(NCc5cc(O)cc(-c6c(C)noc6C)c5)(C3)C4)cc2)C[C@@H]1C` [Compound 16i, N^1-(3-((3-(3,5-Dimethylisoxazol-4-yl)-5-hydroxybenzyl)amino)bicyclo[1.1.1]pentan-1-yl)-N5-(4-(((2S,4R)-2-methyl-1-propionyl-1,2,3,4-tetrahydroquinolin-4-yl)amino)phenyl)glutaramide] the value was 7.84 nM; for `CCC(=O)N1c2ccccc2[C@H](Nc2ccc(NC(=O)CCCC(=O)Nc3ccc(Oc4ccccc4-c4cn(C)c(=O)cc4OC)cc3)cc2)C[C@@H]1C` [Compound 16k, N^1-(4-(2-(4-Methoxy-1-methyl-6-oxo-1,6-dihydropyridin-3-yl)phenoxy)phenyl)-N5-(4-(((2S,4R)-2-methyl-1-propionyl-1,2,3,4-tetrahydroquinolin-4-yl)amino)phenyl)glutaramide], 0.9 nM.

Still in this experiment, the particulars now being: SU-DHL-4 cells, 72 hours, Cell Counting Kit-8; concentration showing 90% inhibition of cell viability; read-out: SU-DHL-4 Cell Viability Inhibition Rate IC90.
Turning to `CCC(=O)N1c2ccccc2[C@H](Nc2ccc(C(=O)NCCCNC(=O)c3ccc(Cn4c(C(=O)OCCN(C)C)cc5c4CCCC5=O)cc3)cc2)C[C@@H]1C` [Compound 15e, 2-(Dimethylamino)ethyl 1-(4-((3-(4-(((2S,4R)-2-methyl-1-propionyl-1,2,3,4-tetrahydroquinolin-4-yl)amino)benzamide)propyl)carbamoyl)benzyl)-4-oxo-4,5,6,7-tetrahydro-1H-indole-2-carboxylate], the IC90 was determined as 34 nM.
The same measure, in the same setting: under `CCC(=O)N1c2ccccc2[C@H](Nc2ccc(C(=O)NCCCNC(=O)c3ccc(Cn4c(C(=O)OC)cc5c4CCCC5=O)cc3)cc2)C[C@@H]1C` [Compound 15g, Methyl 1-(4-((3-(4-(((2S,4R)-2-methyl-1-propionyl-1,2,3,4-tetrahydroquinolin-4-yl)amino)benzamide)propyl)carbamoyl)benzyl)-4-oxo-4,5,6,7-tetrahydro-1H-indole-2-carboxylate] stands 5.03 nM; under `CCC(=O)N1c2ccccc2[C@H](Nc2ccc(NC(=O)CCCC(=O)Nc3ccc(Cn4c(CC)cc5c4CCCC5=O)cc3)cc2)C[C@@H]1C` [Compound 15i], 0.88 nM.
For `CCC(=O)N1c2ccccc2[C@H](Nc2ccc(NC(=O)CCCC(=O)NC3CCCN(Cc4ccc(NS(=O)(=O)CC)cc4-c4cn(C)c(=O)cc4OC)C3)cc2)C[C@@H]1C` (stereo partly drawn) [Compound 16f, N^1-(1-(4-(Ethylsulfonamide)-2-(4-methoxy-1-methyl-6-oxo-1,6-dihydropyridin-3-yl)benzyl)piperidin-3-yl)-N5-(4-(((2S,4R)-2-methyl-1-propionyl-1,2,3,4-tetrahydroquinolin-4-yl)amino)phenyl)glutaramide], the IC90 is 24.6 nM.
In the case of `CCC(=O)N1c2ccccc2[C@H](Nc2ccc(NC(=O)CCCC(=O)NC3CCC(Oc4ccc(NS(=O)(=O)CC)cc4-c4cn(C)c(=O)cc4OC)CC3)cc2)C[C@@H]1C` (stereo partly drawn) [Compound 16l, N^1-((1r,4r)-4-(4-(Ethylsulfonamide)-2-(4-methoxy-1-methyl-6-oxo-1,6-dihydropyridin-3-yl)phenoxy)cyclohexyl)-N5-(4-(((2S,4R)-2-methyl-1-propionyl-1,2,3,4-tetrahydroquinolin-4-yl)amino)phenyl)glutaramide], the IC90 worked out at 89.8 nM.
Still for that read-out and setting: for `CCC(=O)N1c2ccccc2[C@H](Nc2ccc(-n3cc(CNC(=O)c4cccc(Oc5ccc(NS(=O)(=O)CC)cc5-c5cn(C)c(=O)cc5OC)c4)nn3)cc2)C[C@@H]1C` [Compound 16n, 3-(4-(Ethylsulfonamide)-2-(4-methoxy-1-methyl-6-oxo-1,6-dihydropyridin-3-yl)phenoxy)-N-((1-(4-(((2S,4R)-2-methyl-1-propionyl-1,2,3,4-tetrahydroquinolin-4-yl)amino)phenyl)-1H-1,2,3-triazol-4-yl)methyl)benzamide] the value was 0.48 nM.
